Our source for the MIC and zone of inhibition values is ChEMBL document CHEMBL3046897, “Synthesis of 3-{4-[4-dimethylamino-6-(4-methyl-2-oxo-2H-chromen-7-yloxy)-[1,3,5]triazin-2-ylamino]-phenyl}-2-phenyl-5-(4-pyridin-2-yl-piperazin-1-ylmethyl)-thiazolidin-4-one and their biological evaluation” (2012).

What all share (assay type): functional
In assay [1] the test system is Shigella flexneri. The assay can be described thus: Antibacterial activity against Shigella flexneri after 24 hr by agar streak dilution method.
The test system of assay [2] is Proteus vulgaris. The assay can be described thus: Antibacterial activity against Proteus vulgaris after 24 hr by agar streak dilution method.
For assay [3], the system named is Salmonella typhi. In words: Antibacterial activity against Salmonella enterica subsp. enterica serovar Typhi after 24 hr by agar streak dilution method.
Assay [4] has as its system Klebsiella pneumoniae. The assay can be described thus: Antibacterial activity against Klebsiella pneumoniae after 24 hr by agar streak dilution method.
The test system of assay [5] is Candida albicans. In words: Antifungal activity against Candida albicans at 100 ug/disk after 48 hr by paper disk diffusion method. As to conditions: read-out: IZ. (In general: A growth-free zone around the sample is the usual read-out of agar diffusion tests.)
For assay [6], the system named is Aspergillus clavatus. In words: Antifungal activity against Aspergillus clavatus at 100 ug/disc after 48 hr by paper disk diffusion method. The conditions noted are these: read-out: IZ.
The subject of assay [7] is Aspergillus fumigatus. The assay can be described thus: Antifungal activity against Aspergillus fumigatus at 100 ug/disc after 48 hr by paper disk diffusion method. The conditions noted are these: read-out: IZ.
The subject of assay [8] is Aspergillus niger. In words: Antifungal activity against Aspergillus niger at 100 ug/disk after 48 hr by paper disk diffusion method. The conditions noted are these: read-out: IZ.
For assay [9], the system named is Candida albicans. The assay can be described thus: Antifungal activity against Candida albicans after 48 hr by agar streak dilution method.
Assay [10] concerns Aspergillus clavatus. The assay can be described thus: Antifungal activity against Aspergillus clavatus after 48 hr by agar streak dilution method.
Assay [11] concerns Aspergillus niger. The assay can be described thus: Antifungal activity against Aspergillus niger after 48 hr by agar streak dilution method.
For assay [12], the system named is Pseudomonas aeruginosa. The assay can be described thus: Antibacterial activity against Pseudomonas aeruginosa after 24 hr by agar streak dilution method.
Assay [13] has as its system Escherichia coli. The assay can be described thus: Antibacterial activity against Escherichia coli after 24 hr by agar streak dilution method.
Assay [14] relates to Shigella flexneri. The assay can be described thus: Antibacterial activity against Shigella flexneri at 100 ug/disc after 24 hr by paper disk diffusion method. The conditions noted are these: read-out: IZ.
Assay [15] concerns Proteus vulgaris. The assay can be described thus: Antibacterial activity against Proteus vulgaris at 100 ug/disk after 24 hr by paper disk diffusion method. As to conditions: read-out: IZ.
The subject of assay [16] is Salmonella typhi. The assay can be described thus: Antibacterial activity against Salmonella enterica subsp. enterica serovar Typhi at 100 ug/disk after 24 hr by paper disk diffusion method. As to conditions: read-out: IZ.
In assay [17] the test system is Klebsiella pneumoniae. In words: Antibacterial activity against Klebsiella pneumoniae at 100 ug/disk after 24 hr by paper disk diffusion method. As to conditions: read-out: IZ.
The subject of assay [18] is Pseudomonas aeruginosa. In words: Antibacterial activity against Pseudomonas aeruginosa at 100 ug/disk after 24 hr by paper disk diffusion method. The conditions noted are these: read-out: IZ.
For assay [19], the system named is Escherichia coli. In words: Antibacterial activity against Escherichia coli at 100 ug/disk after 24 hr by paper disk diffusion method. As to conditions: read-out: IZ.
Assay [20] deals with Bacillus subtilis. In words: Antibacterial activity against Bacillus subtilis after 24 hr by agar streak dilution method.
The subject of assay [21] is Staphylococcus aureus. In words: Antibacterial activity against Staphylococcus aureus after 24 hr by agar streak dilution method.
In assay [22] the test system is Bacillus subtilis. In words: Antibacterial activity against Bacillus subtilis at 100 ug/disk after 24 hr by paper disk diffusion method. As to conditions: read-out: IZ.
Assay [23] deals with Staphylococcus aureus. The assay can be described thus: Antibacterial activity against Staphylococcus aureus at 100 ug/disc after 24 hr by paper disk diffusion method. The conditions noted are these: read-out: IZ.
Assay [24] concerns Aspergillus fumigatus. The assay can be described thus: Antifungal activity against Aspergillus fumigatus after 48 hr by agar streak dilution method.

Values after ≈ are worked out from the molar mass of the structure shown.

`Cc1ccc(/C=N/c2ccc(Nc3nc(Oc4ccc5c(C)cc(=O)oc5c4)nc(N(C)C)n3)cc2)cc1`: the MIC (in general, the least concentration at which growth counts as inhibited) in assay [1] stood at 50 µg/mL (≈ 98.7 µM); in assay [2], 100 µg/mL (≈ 197 µM); in [3] it was 50 µg/mL (≈ 98.7 µM); in assay [4], 100 µg/mL (≈ 197 µM); in assay [9] it was 50 µg/mL (≈ 98.7 µM); in assay [10] it was 100 µg/mL (≈ 197 µM). The MIC in [11] is 50 µg/mL (≈ 98.7 µM); in assay [12], 50 µg/mL (≈ 98.7 µM); in [13] it was 100 µg/mL (≈ 197 µM); in [20], 50 µg/mL (≈ 98.7 µM); in [21] it was 100 µg/mL (≈ 197 µM); in assay [24], 100 µg/mL (≈ 197 µM). For the same compound, the zone of inhibition at 100 µg/disc in assay [5] worked out at 17 mm; in assay [6], 16 mm; in assay [7] it was 15 mm; in [8], 17 mm; in [14] it was 18 mm; in [15], 11 mm. In addition, the zone of inhibition at 100 µg/disc is 17 mm in assay [16]; 10 mm in [17]; 18 mm in assay [18]; less than 10 mm in assay [19]; 17 mm in assay [22]; 16 mm in assay [23].
On to `Cc1cc(=O)oc2cc(Oc3nc(Nc4ccc(N5C(=O)CSC5c5ccc(O)cc5O)cc4)nc(N(C)C)n3)ccc12` (stereo unspecified), for which the MIC in [1] was 25 µg/mL (≈ 41.8 µM); in assay [2], 50 µg/mL (≈ 83.5 µM); in assay [3], 12.5 µg/mL (≈ 20.9 µM); in assay [4], 25 µg/mL (≈ 41.8 µM); in [9] it was 12.5 µg/mL (≈ 20.9 µM); in assay [10] it was 50 µg/mL (≈ 83.5 µM). The MIC in assay [11] was 50 µg/mL (≈ 83.5 µM); in assay [12] it was 50 µg/mL (≈ 83.5 µM); in assay [13], 25 µg/mL (≈ 41.8 µM); in assay [20], 25 µg/mL (≈ 41.8 µM); in [21], 12.5 µg/mL (≈ 20.9 µM); in assay [24], 25 µg/mL (≈ 41.8 µM). Also, the zone of inhibition at 100 µg/disc in assay [5] is 22 mm; in assay [6], 19 mm; in assay [7], 21 mm; in assay [8], 18 mm; in assay [14], 23 mm; in assay [15] it was 19 mm. The zone of inhibition at 100 µg/disc in [16] is 24 mm; in assay [17], 22 mm; in [18], 18 mm; in assay [19] it was 20 mm; in [22] it was 20 mm; in assay [23], 22 mm.
On to `Cc1cc(=O)oc2cc(Oc3nc(Nc4ccc(N5C(=O)C(CN6CCN(c7ccccn7)CC6)SC5c5cccc(F)c5)cc4)nc(N(C)C)n3)ccc12` (stereo unspecified), for which the MIC in assay [1] stood at 12.5 µg/mL (≈ 16.5 µM); in [2], 50 µg/mL (≈ 65.8 µM); in assay [3], 25 µg/mL (≈ 32.9 µM); in assay [4], 50 µg/mL (≈ 65.8 µM); in [9] it was 12.5 µg/mL (≈ 16.5 µM); in [10], 12.5 µg/mL (≈ 16.5 µM). Also, the MIC in assay [11] turned out to be 12.5 µg/mL (≈ 16.5 µM); in assay [12] it was 25 µg/mL (≈ 32.9 µM); in assay [13] it was 6.25 µg/mL (≈ 8.23 µM); in [20], 12.5 µg/mL (≈ 16.5 µM); in [21], 25 µg/mL (≈ 32.9 µM); in assay [24], 25 µg/mL (≈ 32.9 µM). For the same compound, the zone of inhibition at 100 µg/disc in [5] worked out at 21 mm; in [6], 25 mm; in assay [7], 19 mm; in assay [8], 23 mm; in assay [14], 25 mm; in assay [15] it was 21 mm. Moreover, the zone of inhibition at 100 µg/disc in [16] worked out at 23 mm; in assay [17] it was 20 mm; in [18], 21 mm; in [19], 28 mm; in [22] it was 21 mm; in assay [23], 19 mm.
In the case of `Cc1cc(=O)oc2cc(Oc3nc(Nc4ccc(N5C(=O)CSC5c5ccc(Cl)c(Cl)c5)cc4)nc(N(C)C)n3)ccc12` (stereo unspecified), the MIC turned out to be 50 µg/mL (≈ 78.7 µM) in [1]; 100 µg/mL (≈ 157 µM) in [2]; 50 µg/mL (≈ 78.7 µM) in [3]; 100 µg/mL (≈ 157 µM) in assay [4]; 100 µg/mL (≈ 157 µM) in [9]; 50 µg/mL (≈ 78.7 µM) in [10]. For the same compound, the MIC is 100 µg/mL (≈ 157 µM) in [11]; 50 µg/mL (≈ 78.7 µM) in [12]; 100 µg/mL (≈ 157 µM) in [13]; 50 µg/mL (≈ 78.7 µM) in [20]; 100 µg/mL (≈ 157 µM) in assay [21]; 100 µg/mL (≈ 157 µM) in [24]. Besides, the zone of inhibition at 100 µg/disc in assay [5] is 13 mm; in assay [6], 18 mm; in assay [7] it was 15 mm; in [8], 12 mm; in assay [14], 18 mm; in assay [15] it was 17 mm. Besides, the zone of inhibition at 100 µg/disc in [16] was found to be 18 mm; in [17], 15 mm; in [18], 19 mm; in [19], 14 mm; in [22], 18 mm; in [23], 16 mm.
